Measured values from ChEMBL document CHEMBL1201862, “PubChem BioAssay data set” (2004).
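Dose response: 5 concentrations. Exposure: 48 h. Format: 96-well plates. Endpoint: linear interpolation; highest concentration if not reached. The concentration for 50% growth inhibition is given as GI50.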 Active and inactive are the calls of the source. Rule as the data show it: active = GI50 up to about 1.1 µM and inactive = higher. Non-standard residues stand in square brackets, D forms with d. Residues, ends and D or L forms follow the SMILES beside them. ξ: configuration not given here. Pentanoyl(2-O,4-OH,5-Cl) = O=C(O)C(O)CC(O)CCl; Ile(3ξ) = CCC(C)[C@H](N)C(=O)O; NMeV = CN[C@H](C(=O)O)C(C)C; NMeA = CN[C@@H](C)C(=O)O; βAla = NCCC(=O)O

What was measured:
Test in all cases: inhibition of tumour cell growth, NCI panel, 48 h
HT-29 = tested on: HT-29
NCI-H226 = tested on: NCI-H226
MDA-MB-231 = tested on: MDA-MB-231
Hs-578T = tested on: Hs-578T
PC-3 = tested on: PC-3
BT-549 = tested on: BT-549
NCI-H522 = tested on: NCI-H522
TK-10 = tested on: TK-10
SK-MEL-2 = tested on: SK-MEL-2
Malme-3M = tested on: Malme-3M
KM12 = tested on: KM12
CCRF-CEM = tested on: CCRF-CEM
HOP-92 = tested on: HOP-92
HCT-116 = tested on: HCT-116
OVCAR-4 = tested on: OVCAR-4
T47D = tested on: T47D
HCT-15 = tested on: HCT-15
SR = tested on: SR
SNB-75 = tested on: SNB-75
DLD-1 = tested on: DLD-1

SMILES	GI50 (HT-29)	GI50 (NCI-H226)	GI50 (MDA-MB-231)	GI50 (Hs-578T)	GI50 (PC-3)	GI50 (BT-549)	GI50 (NCI-H522)	GI50 (TK-10)	GI50 (SK-MEL-2)	GI50 (Malme-3M)	GI50 (KM12)	GI50 (CCRF-CEM)	GI50 (HOP-92)	GI50 (HCT-116)	GI50 (OVCAR-4)	GI50 (T47D)	GI50 (HCT-15)	GI50 (SR)	GI50 (SNB-75)	GI50 (DLD-1)
Oc1c(Br)ccc2cccnc12	5.3 µM (inactive)	5.19 µM (inactive)	1.87 µM (inactive)	3.21 µM (inactive)	3.33 µM (inactive)	7.48 µM (inactive)	0.959 µM (active)	5.04 µM (inactive)	11.2 µM (inactive)	3.46 µM (inactive)	4.07 µM (inactive)	0.521 µM (active)	4.09 µM (inactive)	2.05 µM (inactive)	2.1 µM (inactive)	1.51 µM (inactive)	0.948 µM	0.944 µM (active)	10.4 µM (inactive)	–
N#Cc1c(NC(=S)NC(=O)c2ccccc2)nc2c(c1-c1ccccc1)CCCC2	> 100 µM (inactive)	–	93.8 µM (inactive)	17 µM (inactive)	> 100 µM (inactive)	30.5 µM (inactive)	–	> 100 µM (inactive)	–	> 10 µM (inactive)	> 100 µM (inactive)	> 100 µM (inactive)	–	> 100 µM (inactive)	22.5 µM (inactive)	17.7 µM (inactive)	> 100 µM	> 100 µM (inactive)	17.1 µM (inactive)	–
COc1ccc(C2c3cc4c(cc3OC(NCCO)C2C)OCO4)cc1 (centres undefined)	20 µM (inactive)	28.2 µM (inactive)	26.9 µM (inactive)	19.3 µM (inactive)	23.4 µM (inactive)	16.7 µM (inactive)	16.6 µM (inactive)	23.8 µM (inactive)	19.3 µM (inactive)	18.7 µM (inactive)	31.7 µM (inactive)	21.2 µM (inactive)	34.3 µM (inactive)	17.3 µM (inactive)	–	30.3 µM (inactive)	17.7 µM	19 µM (inactive)	19.6 µM (inactive)	–
Cc1ccc(C#CS(=O)(=O)C(F)(F)F)cc1	> 100 µM (inactive)	> 89.7 µM (inactive)	–	–	–	–	> 100 µM (inactive)	–	> 100 µM (inactive)	> 100 µM (inactive)	> 100 µM (inactive)	> 100 µM (inactive)	> 100 µM (inactive)	> 100 µM (inactive)	> 100 µM (inactive)	–	> 100 µM	–	> 100 µM (inactive)	> 100 µM (inactive)
Cc1c(Cl)c(=O)oc2cc(OCC(=O)c3ccccc3)ccc12	> 100 µM (inactive)	> 100 µM (inactive)	29.4 µM (inactive)	> 100 µM (inactive)	> 100 µM (inactive)	> 100 µM (inactive)	> 100 µM (inactive)	92 µM (inactive)	> 100 µM (inactive)	> 100 µM (inactive)	> 100 µM (inactive)	> 100 µM (inactive)	97.5 µM (inactive)	–	> 100 µM (inactive)	> 100 µM (inactive)	> 100 µM	2.7 µM (inactive)	–	–
c1ccc2c(c1)NCc1cc3ccccc3nc1O2	71.6 µM (inactive)	> 40.7 µM (inactive)	–	–	–	–	> 100 µM (inactive)	–	> 100 µM (inactive)	> 100 µM (inactive)	> 100 µM (inactive)	> 68.5 µM (inactive)	> 100 µM (inactive)	> 100 µM (inactive)	> 100 µM (inactive)	–	> 100 µM	–	> 84.5 µM (inactive)	> 100 µM (inactive)
CCC(C)[C@@H]1NC(=O)[C@@H]2CCCN2C(=O)C(CC(O)CCl)OC(=O)CCNC(=O)[C@H](C)N(C)C(=O)[C@H](C(C)C)N(C)C1=O (some centres undefined) (cyclo([Ile(3ξ)][NMeV][NMeA][βAla][Pentanoyl(2-O,4-OH,5-Cl)]P))	3.12 µM (inactive)	> 100 µM (inactive)	> 47.5 µM (inactive)	> 91.6 µM (inactive)	74.6 µM (inactive)	> 100 µM (inactive)	2.36 µM (inactive)	> 100 µM (inactive)	0.347 µM (active)	12.3 µM (inactive)	> 61.9 µM (inactive)	0.483 µM (active)	1.09 µM (active)	13.9 µM (inactive)	> 36.2 µM (inactive)	3.94 µM (inactive)	> 80.2 µM	0.361 µM (active)	2.92 µM (inactive)	–
COc1cc2c(oc(=O)c3cc(C)cc(OC)c32)c2c(C3OC(C)C(O)C(C)(O)C3O)ccc(O)c12 (centres undefined)	0.463 µM (active)	0.376 µM (active)	–	–	–	–	0.389 µM (active)	–	0.794 µM (active)	0.673 µM (active)	0.771 µM (active)	0.0955 µM (active)	0.745 µM (active)	0.216 µM (active)	0.467 µM (active)	–	0.662 µM	–	0.571 µM (active)	0.845 µM (active)
O=C1CCCCC2N(C(c3ccccc3)c3ccccc3)CC[C@@]12c1ccccc1.O=C1CCCC[C@H]2N(C(c3ccccc3)c3ccccc3)CC[C@@]12c1ccccc1 (some centres undefined)	4 µM (inactive)	6.38 µM (inactive)	–	–	–	–	3.68 µM (inactive)	> 10 µM (inactive)	–	–	> 10 µM (inactive)	6.12 µM (inactive)	2.56 µM (inactive)	2.99 µM (inactive)	4.21 µM (inactive)	–	7.93 µM	–	> 10 µM (inactive)	–
CCCCN(C(=O)c1ccccc1)C1CCC(=O)c2[nH]c3ccccc3c21 (centres undefined)	20.5 µM (inactive)	29 µM (inactive)	23.7 µM (inactive)	16.9 µM (inactive)	20.7 µM (inactive)	36.9 µM (inactive)	38.7 µM (inactive)	37.5 µM (inactive)	–	55 µM (inactive)	79.6 µM (inactive)	29.6 µM (inactive)	22.1 µM (inactive)	24.7 µM (inactive)	26.7 µM (inactive)	26.9 µM (inactive)	24.5 µM	11.2 µM (inactive)	0.481 µM (active)	–
CN(C)CCCNC(=O)N/N=C/c1ccccc1	> 100 µM (inactive)	> 100 µM (inactive)	–	–	–	–	> 100 µM (inactive)	> 100 µM (inactive)	> 100 µM (inactive)	> 100 µM (inactive)	> 100 µM (inactive)	> 100 µM (inactive)	–	> 100 µM (inactive)	–	–	> 100 µM	–	> 100 µM (inactive)	> 100 µM (inactive)
COc1ccc2[nH]c3c(C)c4ccncc4c(C)c3c2c1	0.212 µM (active)	1.13 µM (inactive)	–	–	–	–	0.681 µM (active)	–	1.86 µM (inactive)	1.44 µM (inactive)	0.152 µM (active)	0.0982 µM (active)	0.23 µM (active)	0.0425 µM (active)	0.258 µM (active)	–	0.22 µM	–	1.17 µM (inactive)	0.123 µM (active)
C=CCC12CC(=O)C=C1CCC1(C2)OCCO1 (centres undefined)	–	> 100 µM (inactive)	–	–	–	–	> 100 µM (inactive)	> 100 µM (inactive)	> 100 µM (inactive)	> 100 µM (inactive)	> 100 µM (inactive)	> 100 µM (inactive)	–	> 100 µM (inactive)	> 100 µM (inactive)	–	> 100 µM	> 100 µM (inactive)	> 100 µM (inactive)	> 100 µM (inactive)
O=C1NC(=O)C(CCO)(c2ccccc2)C(=O)N1	> 100 µM (inactive)	> 100 µM (inactive)	–	–	–	–	> 100 µM (inactive)	–	> 100 µM (inactive)	> 100 µM (inactive)	> 100 µM (inactive)	> 100 µM (inactive)	> 100 µM (inactive)	> 100 µM (inactive)	> 100 µM (inactive)	–	> 100 µM	–	> 100 µM (inactive)	> 100 µM (inactive)
CN(C)c1ccc(C2CC(=O)CC(c3ccc(N(C)C)cc3)C23C(=O)NC(=O)NC3=O)cc1 (centres undefined)	> 25 µM (inactive)	> 25 µM (inactive)	> 25 µM (inactive)	–	> 25 µM (inactive)	23 µM (inactive)	17.6 µM (inactive)	> 25 µM (inactive)	16.7 µM (inactive)	8.73 µM (inactive)	> 25 µM (inactive)	> 25 µM (inactive)	5.18 µM (inactive)	> 25 µM (inactive)	> 25 µM (inactive)	> 25 µM (inactive)	> 25 µM	> 25 µM (inactive)	9.79 µM (inactive)	–
COC1C(O)C(n2ncc3c(SC)nc(SC)nc32)OC1C(O)CO (centres undefined)	> 100 µM (inactive)	> 100 µM (inactive)	–	–	–	–	> 100 µM (inactive)	–	> 100 µM (inactive)	> 100 µM (inactive)	> 100 µM (inactive)	> 100 µM (inactive)	> 100 µM (inactive)	> 100 µM (inactive)	> 100 µM (inactive)	–	> 100 µM	–	> 100 µM (inactive)	> 100 µM (inactive)
Nc1ccccc1Sc1ccc(Cl)cc1	19.1 µM (inactive)	4.86 µM (inactive)	–	–	–	–	–	35.6 µM (inactive)	27.9 µM (inactive)	26.1 µM (inactive)	33.4 µM (inactive)	17.9 µM (inactive)	20 µM (inactive)	34.3 µM (inactive)	30.8 µM (inactive)	–	28.1 µM	21.2 µM (inactive)	18.1 µM (inactive)	34.6 µM (inactive)
Nc1ccccc1S(=O)(=O)c1ccccc1	> 100 µM (inactive)	51.2 µM (inactive)	–	–	–	–	–	> 100 µM (inactive)	> 100 µM (inactive)	> 100 µM (inactive)	> 100 µM (inactive)	> 100 µM (inactive)	> 100 µM (inactive)	> 100 µM (inactive)	> 100 µM (inactive)	–	> 100 µM	> 100 µM (inactive)	41.1 µM (inactive)	> 100 µM (inactive)
CCOC(=O)c1c[nH]c2cc3c(cc2c1=O)CCS3(=O)=O.CCOC(=O)c1c[nH]c2ccc3c(c2c1=O)S(=O)(=O)CC3	> 100 µM (inactive)	62.4 µM (inactive)	–	–	–	–	> 100 µM (inactive)	–	> 100 µM (inactive)	> 100 µM (inactive)	> 100 µM (inactive)	> 100 µM (inactive)	> 100 µM (inactive)	> 100 µM (inactive)	> 100 µM (inactive)	–	> 100 µM	–	> 100 µM (inactive)	> 100 µM (inactive)
